Laboratory results: patent US20080249035A1, “Polymorph of Clarithromycin (Form V)” (Gruenenthal GmbH, priority 2007, published 2008)

Experiment: Interconversion tests in acetone (thermodynamic/physical stability of polymorphic forms)
Format: physicochemical
Experimental: To investigate physical stability in comparison with the known forms form I and form II, the following experiments were carried out (interconversion tests): • a) about 100 mg of form I and approx. 100 mg of form II were put in a 20 ml vial and suspended in 2.5 ml acetone p.a. • b) about 100 mg of form V and approx. 100 mg of form I were put in a 20 ml vial and suspended in 2.5 ml acetone p.a. • c) about 100 mg of form V and approx. 100 mg of form II were put in a 20 ml vial and suspended in 2.5 ml acetone p.a.
All three suspensions were first shaken at room temperature (approx. 20° C.) on a PLS synthesizer at 400 rpm for approx. 2 h. For 20 h the temperature of the suspensions was raised to 40° C. and then left to cool to room temperature (approx. 20° C.) again.
Then the solids were filtered with suction on a G4 frit, made into a slurry with 0.5 ml acetone p.a., washed, and then dried by suction in an air stream, applying a light vacuum.
The crystalline solids were in each case characterized by DSC, XRPD, Raman and TG investigations.

Structure (SMILES)	Relative thermodynamic stability of the forms under the test conditions (interconversion tests in acetone, 20 to 40° C.)	Product (polymorphic form obtained from the starting mixture in the interconversion test) (approx. 100 mg of each form suspended in 2.5 ml acetone, approx. 2 h at room temperature (approx. 20° C.), 20 h at 40° C., cooled to room temperature, solids characterized by DSC, XRPD, Raman, TG)
CC[C@H]1OC(=O)[C@H](C)[C@@H](O[C@H]2C[C@@](C)(OC)[C@@H](O)[C@H](C)O2)[C@H](C)[C@@H](O[C@@H]2O[C@H](C)C[C@H](N(C)C)[C@H]2O)[C@](C)(OC)C[C@@H](C)C(=O)[C@H](C)[C@@H](O)[C@]1(C)O [Form II, clarithromycin]	thermodynamically more stable than form V as well as more stable than form I	–
CC[C@H]1OC(=O)[C@H](C)[C@@H](O[C@H]2C[C@@](C)(OC)[C@@H](O)[C@H](C)O2)[C@H](C)[C@@H](O[C@@H]2O[C@H](C)C[C@H](N(C)C)[C@H]2O)[C@](C)(OC)C[C@@H](C)C(=O)[C@H](C)[C@@H](O)[C@]1(C)O [Form I/Form II, clarithromycin]	–	Form II
